Assay results: US20180311194A1, “APPLICATION OF TRANILAST IN PREPARATION OF DRUG TREATING SCLEREDEMA DIABETICORUM” (THE FIRST AFFILIATED HOSPITAL OF NANJING MEDICAL UNIVERSITY, priority 2016, published 2018)

How the values were obtained:
type I collagen mRNA = conditions: human dermal fibroblasts; cited from earlier work
experimental asthma = conditions: rats; cited from earlier work
[1] = test system: IgE antibody-induced cutaneous anaphylaxis; conditions: rats; cited from earlier work
fibroblast = test: Secretion and synthesis of mucin by fibroblast; format: cell-based; conditions: initially found
[2] = test system: patients with scleredema diabeticorum; test: Clinical oral treatment of patients with scleredema diabeticorum, skin thickness by B-ultrasound; format: in vivo, human; conditions: for skin thickness measured by B-ultrasound: back skin
Excerpt: FIG. 1 is a B-ultrasonography of a patient before medication (a and b are different parts of the affected skin).
1. Mode of administration: oral, tranilast 0.1 g, 3 times a day, every 3 months for a course of treatment, a total of two courses.

[3] = 3 patients, tranilast capsule 0.1, 3 times a day orally, after 3 months
[4] = patients with scleredema diabeticorum, after 3 months of application

COc1ccc(/C=C/C(=O)Nc2ccccc2C(=O)O)cc1OC [tranilast]
TGF-β-induced upregulation of type I collagen mRNA expression and basal level of type I collagen mRNA (type I collagen mRNA): able to suppress
effect on experimental asthma (experimental asthma): significant inhibitory effect
effect on IgE antibody-induced cutaneous anaphylaxis [1]: significant inhibitory effect
secretion and synthesis of mucin by fibroblast (fibroblast): inhibiting
local skin erythema [2, 3]: subsided significantly
uncomfortable symptom of conscious hardening [2, 3]: significantly relieved
therapeutic effect on scleredema diabeticorum ([2]; clinical results): good therapeutic effect
skin thickness measured by B-ultrasound ([2]; patient Example 1, person, after 3 months of oral administration, before 6.5 mm): 6 mm
skin thickness measured by B-ultrasound ([2]; patient Example 2, person, 0.1 three times a day, after 3 months, before 8 mm): 6 mm
skin thickness measured by B-ultrasound ([2]; patient Example 3, person, 0.1 three times a day, after 3 months, before 8.5 mm): 5.9 mm
thickness of the surrounding skin (B-ultrasonography) ([2]; patient, after 3 months of medication, before medication 3.6 mm): 3.0 mm
thickness of the thickest part of skin on the right side (back of the neck, B-ultrasonography) ([2]; patient, after 3 months of medication, before medication about 7.5 mm): about 6.3 mm
thickness of the thickest part of the skin on the left side (back of the neck, B-ultrasonography) ([2]; patient, after 3 months of medication, before medication about 8.7 mm): about 6.8 mm
reduction of maximum skin thickness (B-ultrasound) ([2]; patient, after 3 months of treatment, before treatment 7.8 to 8.7 mm): 2 mm
adverse reactions [2, 4]: no significant adverse reactions were observed
symptoms in clinical practice [2, 4]: significantly relieved
thickness of the skin detected by B-ultrasound [2, 4]: significantly thinner
skin change in further treated cases ([2]; several further cases): skin thinning
blood routine examination, routine urine examination, and biochemical detection ([2]; tranilast capsule 0.1, 3 times a day orally, 3 months): no obvious abnormalities
